Results: patent publication US20250228765A1, “TREATING KNEE JOINT PAIN BY INJECTING RESIN[…] ULTRA LOW DOSES” (Gruenenthal GmbH, priority 2024, published 2025)

Tests used:
[1] = system: naturally-occurring canine osteoarthritis; details: single intraarticular injection of 10 μg; 7 dogs with osteoarthritis; cited from earlier work
[2] = Human study: safety and injection site pain after intraarticular injection; type: in vivo; details: for subjects with severe adverse events: none related to investigational medicinal product; for incidence of treatment emergent adverse events: placebo 75.0%
Procedure: (§1) The primary objective of this study was to compare the analgesic effects of single intraarticular injections of Resiniferatoxin (100 or 400 ng) compared to placebo, at 3 and 6 months postinjection, in participants with chronic osteoarthritic knee joint pain. Secondary objectives were to evaluate the analgesic effects of Resiniferatoxin versus placebo in terms of a responder analysis (percentage of subjects achieving ≥50% or ≥70% reduction in visual analog scale pain score) and changes in Western Ontario and McMaster Universities Arthritis Index (WOMAC) total and subscale scores (pain, physical function and stiffness). Safety and injection site pain were also evaluated.
(§2) The study was conducted as a randomized, double-blind, placebo-controlled, single-dose trial of Resiniferatoxin. Eligible patients were aged 40 to 80 years with radiographic knee osteoarthritis (Kellgren-Lawrence Grade 2-4 in the last 3 years) and a baseline visual analog scale (0-100 mm) pain score ≥40 mm on motion in the target knee, with or without pain medication. 67 subjects were randomized to treatment with either Resiniferatoxin 100 ng (n=24) or 400 ng (n=23), or placebo (n=20), administered intraarticularly into the index knee. Intraarticular Ropivacaine (5 ml, 0.5%) was administered 15 mins before investigational medicinal product. Visual analog scale scores were used to evaluate pain on motion as the average of the last 2 days in a target knee between baseline and at 3 and 6 months post injection. Injection site pain was rated (visual analog scale) from baseline (−0.5 h) up to 3 h post intraarticular injections.

[3] = system: chronic osteoarthritic knee joint pain; assay: Randomized, double-blind, placebo-controlled single-dose human study: analgesic effect of intraarticular injection; type: in vivo; details: for mean (SD) absolute reduction of visual analog scale score, pain on motion: 6 months, VAS 0-100 mm, placebo 28.26
Procedure: In a human study, two pharmaceutical dosage forms according to the invention were used comprising Resiniferatoxin (100 or 400 ng) in an aqueous ethanolic solution additionally containing polysorbate 80 (Tween® 80) as surfactant, trometamol as buffer and a combination of NaCl, KCl, and CaCl2) as inorganic salts.
as §1, §2

[4] = Comparative study in rats: synovial fluid pharmacokinetics after intraarticular dosing; type: in vivo; details: male, rat, 9.6 ng, across the three formulations
Procedure: (§3) Animals: 63 male rats (21 rats per formulation; plus an additional 3 animals as a replacement). Body weight: average 263 g (236-295 g). Dose (IA): ˜36.6 ng/kg=>9.6 ng/knee as an injection of 30 μL/knee of three various formulations with concentration 320 ng/mL. PK sampling: 7 timepoints: 10 min (animals not fully conscious between dosing and sampling), 20 min, 30 min, 1 h, 1.5 h, 2 h and 4 h (one sample per rat; 3 rats per timepoint) in plasma and synovial fluid. Tissue samples: at same time points as PK samples following tissue samples: meniscus, patella, femoral head and tibial plateau.
Sampling of synovial fluid: A 0.5 ml 28G Insulin syringes (fixed needle, no hub) were filled with 100 μl of the saline/EDTA solution. The skin was removed from the joint and then the needle was inserted through the patellar tendon into the joint space. The solution was then injected into the joint space, the knee was flexed a couple/few times (all with the needle still in the joint) and then was pulled back on the plunger to collected the mix of saline/EDTA and synovial fluid. The lavage fluid was then put into a microcentrifuge tube, it was spun to pellet any cells/debris and then the supernatant was collected.

[5] = Comparative study in rats: knee tissue concentrations after intraarticular dosing; type: in vivo; details: male, rat, knee tissues, across the three formulations
Procedure: as §3

[6] = system: moderate to severe pain due to osteoarthritis of the knee; details: cited from earlier work
[7] = single intraarticular doses 100 ng or 400 ng

In the case of `C=C(C)[C@]12C[C@@H](C)[C@@]34O[C@](Cc5ccccc5)(O[C@@H]1[C@@H]3C=C(COC(=O)Cc1ccc(O)c(OC)c1)C[C@]1(O)C(=O)C(C)=C[C@@H]41)O2` [Resiniferatoxin, 4-hydroxy-3-methoxy-benzeneacetic acid, [(2S,3aR,3bS,6aR,9aR,9bR, 10R,11aR)-3a, 3b, 6,6a, 9a,10,11,11a-octahydro-6a-hydroxy-8,10-dimethyl-11a-(1-methylethenyl)-7-oxo-2-(phenylmethyl)-7H-2,9b-epoxyazuleno[5,4-e]-1,3-benzodioxol-5-yl]methyl ester], the analgesic effect [1] is given as “significant and prolonged analgesic effect”, the “subjects with severe adverse events” value ([2]; 100 ng group (n=24)) is given as 2 subjects and the “incidence of treatment emergent adverse events” value ([2]; 100 ng group) is given as 62.5%. For the same compound, the “subjects with severe adverse events” value ([2]; 400 ng group (n=23)) was 3 subjects, the “incidence of treatment emergent adverse events” value ([2]; 400 ng group) was 78.3% and the “injection site pain (procedural pain) compared to placebo” value ([2]; intraarticular, 100 or 400 ng, VAS up to 3 h post injection) was “generally higher”. The “time of peak injection site pain post-injection” value ([2]; moderate-severe intensity in some subjects) was “around 0.5 h”, the “injection site pain return to baseline” value ([2]; post-injection) was at most 3 h and the “safety profile and tolerability” value [2, 7] was “good safety profile”. For the same compound, the “reduction in WOMAC total and subscale scores (pain, physical function and stiffness) versus placebo” value ([3]; 100 ng and 400 ng groups, at both 3 and 6 months) was “greater reduction”, the “mean (SD) absolute reduction of visual analog scale score, pain on motion” value ([3]; 100 ng single intraarticular injection) was 33.52 (22.89) and the “mean (SD) absolute reduction of visual analog scale score, pain on motion” value ([3]; 400 ng single intraarticular injection) was 41.48 (32.57). For the same compound, the “analgesia evident during the follow-up period” value [3, 7] was “at least 3 months”, the “analgesic onset after administration” value [3, 7] was “within one week” and the half-life ([4]; read-out: half-life in SF (converted)) was about 90 min. It also gave a half-life ([4]; read-out: half-life in SF (range)) of 64.2 to 111 min, a half-life ([5]; 9.6 ng, read-out: half-life in the tissues (converted)) of about 90 min and a half-life ([5]; other: intraarticular, 9.6 ng/knee, read-out: half-life in the tissues (converted)) of about 90 min. For the same compound, the half-life ([5]; other: intraarticular, 9.6 ng/knee, read-out: half-life in the tissues (range)) was 53.7 to 193 min, the “sustained pain relief (anecdotal long-term follow up)” value ([6]; one-time intraarticular dose 5-30 μg) was over 365 days and the “safety as onetime intraarticular injection” value ([6]; up to the planned highest dose of 30 μg) was “demonstrated safety”.
